The text below walks through data of US6608086B2, “Dihydropyridines and new uses thereof” (Synaptic Pharmaceutical Corporation, priority 1993, dated 2003).

Assay [1] addresses T1, α1A Human Adrenergic Receptor (Homo sapiens, UniProt P25100).
T1 construct: The entire coding region of α1A (1719 bp); expressed in transfected cells
T1 sequence (P25100 1-572): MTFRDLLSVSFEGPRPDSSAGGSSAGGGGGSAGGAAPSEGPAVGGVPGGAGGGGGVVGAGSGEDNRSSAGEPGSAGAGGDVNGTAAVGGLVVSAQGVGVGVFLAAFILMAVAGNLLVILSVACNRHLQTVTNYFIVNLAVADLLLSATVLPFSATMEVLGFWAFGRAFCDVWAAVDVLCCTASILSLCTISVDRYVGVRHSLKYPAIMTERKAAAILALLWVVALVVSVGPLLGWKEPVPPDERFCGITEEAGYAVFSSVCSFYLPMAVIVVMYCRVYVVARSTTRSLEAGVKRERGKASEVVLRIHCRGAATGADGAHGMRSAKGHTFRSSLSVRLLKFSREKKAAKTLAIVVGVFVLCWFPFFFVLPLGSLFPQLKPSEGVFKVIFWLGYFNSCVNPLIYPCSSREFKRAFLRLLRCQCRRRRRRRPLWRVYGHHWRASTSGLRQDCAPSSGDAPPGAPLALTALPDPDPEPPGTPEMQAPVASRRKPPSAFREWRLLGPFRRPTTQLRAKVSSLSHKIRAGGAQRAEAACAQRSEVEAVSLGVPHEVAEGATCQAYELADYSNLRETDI
Description: Radioligand binding, [3H]prazosin, cloned human α1A adrenergic receptor. The following applies: pKi alpha-1 1a. Summed up: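 Membranes from LM(tk−) cells transfected with cloned human α1A receptor, prepared in 50 mM Tris-HCl, 1 mM MgCl2, 0.1% ascorbic acid pH 7.5, were incubated with 0.5 nM [3H]prazosin at 37° C for 20 min. Nonspecific binding was defined with 10 μM phentolamine; bound ligand was separated by GF/B filtration.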

Assay [2] deals with T2, α2C receptor (Homo sapiens, UniProt P18825).
T2 construct: host or cells: LM(tk-) cells, line L-α2C
T2 sequence (P18825 1-462): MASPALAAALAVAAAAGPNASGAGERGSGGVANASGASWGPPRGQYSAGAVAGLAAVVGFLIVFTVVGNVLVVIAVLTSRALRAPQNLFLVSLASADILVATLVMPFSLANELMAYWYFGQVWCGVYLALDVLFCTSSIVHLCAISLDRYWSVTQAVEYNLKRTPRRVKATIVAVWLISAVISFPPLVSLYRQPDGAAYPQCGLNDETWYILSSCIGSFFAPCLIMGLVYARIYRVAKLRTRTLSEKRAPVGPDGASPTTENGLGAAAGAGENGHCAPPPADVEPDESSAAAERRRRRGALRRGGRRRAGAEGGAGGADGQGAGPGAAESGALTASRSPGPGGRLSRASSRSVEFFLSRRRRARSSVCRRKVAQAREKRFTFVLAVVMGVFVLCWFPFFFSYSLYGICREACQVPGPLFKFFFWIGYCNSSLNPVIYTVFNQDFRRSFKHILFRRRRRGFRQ
Put plainly: Competition binding, [3H]rauwolscine, human α2C receptor. Summed up:
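Cell lysates from stably transfected LM(tk−) lines are resuspended in 25 mM glycylglycine (pH 7.6 at room temperature), incubated to equilibrium with 0.5 nM [3H]rauwolscine plus competitor, then filtered through GF/B filters; 10 μM phentolamine defines nonspecific binding.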

Assay [3] deals with T3, L-type calcium channel (Rattus norvegicus, UniProt P22002).
T3 construct: membrane fragments of rat cardiac muscle; from tissue; host or cells: rat cardiac muscle membranes
T3 sequence (P22002 whole entry, other chains not shown, the tested form may be a part): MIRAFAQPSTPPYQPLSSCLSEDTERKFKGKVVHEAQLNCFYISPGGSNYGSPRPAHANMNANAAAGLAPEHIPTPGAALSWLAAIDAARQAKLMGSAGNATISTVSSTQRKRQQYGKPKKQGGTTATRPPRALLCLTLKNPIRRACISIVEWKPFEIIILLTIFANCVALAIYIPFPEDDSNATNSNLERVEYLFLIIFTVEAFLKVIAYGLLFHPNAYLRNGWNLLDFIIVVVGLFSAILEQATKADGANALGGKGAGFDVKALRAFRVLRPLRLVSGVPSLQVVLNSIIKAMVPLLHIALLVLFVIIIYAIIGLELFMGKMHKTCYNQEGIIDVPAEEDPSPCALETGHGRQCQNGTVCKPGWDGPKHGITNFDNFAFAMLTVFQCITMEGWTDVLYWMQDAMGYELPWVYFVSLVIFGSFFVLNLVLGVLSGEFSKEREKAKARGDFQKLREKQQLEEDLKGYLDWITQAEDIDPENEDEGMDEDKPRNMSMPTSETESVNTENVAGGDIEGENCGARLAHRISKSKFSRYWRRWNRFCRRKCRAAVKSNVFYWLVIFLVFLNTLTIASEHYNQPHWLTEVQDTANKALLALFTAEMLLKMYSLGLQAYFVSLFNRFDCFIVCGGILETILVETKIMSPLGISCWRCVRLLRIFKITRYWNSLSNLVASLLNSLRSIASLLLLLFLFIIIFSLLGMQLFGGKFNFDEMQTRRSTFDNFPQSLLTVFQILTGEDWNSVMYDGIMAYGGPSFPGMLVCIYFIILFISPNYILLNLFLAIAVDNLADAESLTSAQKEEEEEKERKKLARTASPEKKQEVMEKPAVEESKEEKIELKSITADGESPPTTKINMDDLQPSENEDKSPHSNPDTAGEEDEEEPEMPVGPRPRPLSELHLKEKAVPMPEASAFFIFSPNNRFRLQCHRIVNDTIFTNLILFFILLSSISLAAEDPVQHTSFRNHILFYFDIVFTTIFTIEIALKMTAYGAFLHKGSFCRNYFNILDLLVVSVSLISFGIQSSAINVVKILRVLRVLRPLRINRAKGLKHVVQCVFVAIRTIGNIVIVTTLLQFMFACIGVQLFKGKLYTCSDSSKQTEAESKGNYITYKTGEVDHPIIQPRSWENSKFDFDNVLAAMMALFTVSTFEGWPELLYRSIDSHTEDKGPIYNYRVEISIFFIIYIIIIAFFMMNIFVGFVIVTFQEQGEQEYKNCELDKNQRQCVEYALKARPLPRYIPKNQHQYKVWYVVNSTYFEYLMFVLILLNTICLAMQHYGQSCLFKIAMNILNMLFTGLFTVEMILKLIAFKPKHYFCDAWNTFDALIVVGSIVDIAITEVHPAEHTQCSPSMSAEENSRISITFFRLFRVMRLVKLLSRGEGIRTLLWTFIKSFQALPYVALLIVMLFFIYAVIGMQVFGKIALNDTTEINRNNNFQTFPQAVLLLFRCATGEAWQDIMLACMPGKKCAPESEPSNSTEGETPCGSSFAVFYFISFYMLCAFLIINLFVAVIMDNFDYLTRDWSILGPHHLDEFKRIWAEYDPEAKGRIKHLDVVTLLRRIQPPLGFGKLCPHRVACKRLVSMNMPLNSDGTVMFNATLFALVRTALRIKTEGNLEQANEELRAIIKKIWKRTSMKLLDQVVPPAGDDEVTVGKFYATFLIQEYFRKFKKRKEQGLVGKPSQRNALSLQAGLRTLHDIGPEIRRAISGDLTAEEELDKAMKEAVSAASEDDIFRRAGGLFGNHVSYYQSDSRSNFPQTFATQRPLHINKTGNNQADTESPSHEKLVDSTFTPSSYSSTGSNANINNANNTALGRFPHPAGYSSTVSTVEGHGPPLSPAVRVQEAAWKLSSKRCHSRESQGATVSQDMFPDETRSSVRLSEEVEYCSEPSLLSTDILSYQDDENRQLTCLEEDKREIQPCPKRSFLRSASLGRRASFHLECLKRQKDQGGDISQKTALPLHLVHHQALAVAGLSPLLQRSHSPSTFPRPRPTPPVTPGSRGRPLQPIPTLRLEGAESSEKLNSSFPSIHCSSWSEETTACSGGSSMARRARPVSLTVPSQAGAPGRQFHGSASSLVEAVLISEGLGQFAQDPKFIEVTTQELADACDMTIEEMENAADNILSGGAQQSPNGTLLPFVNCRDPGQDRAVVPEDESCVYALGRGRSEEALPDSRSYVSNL
T3 sequence (P54290 25-944 partner limits assumed, other chains not shown): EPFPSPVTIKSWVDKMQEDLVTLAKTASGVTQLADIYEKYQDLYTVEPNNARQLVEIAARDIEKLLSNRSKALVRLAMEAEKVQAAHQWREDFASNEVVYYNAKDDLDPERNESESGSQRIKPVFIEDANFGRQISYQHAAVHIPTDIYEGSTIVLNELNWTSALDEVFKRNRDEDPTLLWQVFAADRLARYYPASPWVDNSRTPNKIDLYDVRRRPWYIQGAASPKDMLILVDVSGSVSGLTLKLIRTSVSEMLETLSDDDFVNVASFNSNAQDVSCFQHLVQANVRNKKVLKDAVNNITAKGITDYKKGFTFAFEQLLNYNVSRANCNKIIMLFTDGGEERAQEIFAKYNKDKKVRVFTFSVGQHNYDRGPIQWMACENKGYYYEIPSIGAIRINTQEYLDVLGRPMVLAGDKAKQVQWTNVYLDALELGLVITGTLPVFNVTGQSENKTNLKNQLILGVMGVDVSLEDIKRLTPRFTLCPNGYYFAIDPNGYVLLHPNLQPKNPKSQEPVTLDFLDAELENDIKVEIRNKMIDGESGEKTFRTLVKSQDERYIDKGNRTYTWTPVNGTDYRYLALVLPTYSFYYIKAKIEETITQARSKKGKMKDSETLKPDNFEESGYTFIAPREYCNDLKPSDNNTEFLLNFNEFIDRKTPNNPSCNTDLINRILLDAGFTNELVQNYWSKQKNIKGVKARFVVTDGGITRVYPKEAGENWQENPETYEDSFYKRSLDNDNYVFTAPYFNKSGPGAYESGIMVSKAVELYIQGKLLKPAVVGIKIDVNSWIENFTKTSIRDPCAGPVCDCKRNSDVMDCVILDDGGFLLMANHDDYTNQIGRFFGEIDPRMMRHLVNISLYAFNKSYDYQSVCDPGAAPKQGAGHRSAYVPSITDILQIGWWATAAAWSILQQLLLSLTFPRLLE
T3 sequence (P54290 945-1091 partner limits assumed, other chains not shown): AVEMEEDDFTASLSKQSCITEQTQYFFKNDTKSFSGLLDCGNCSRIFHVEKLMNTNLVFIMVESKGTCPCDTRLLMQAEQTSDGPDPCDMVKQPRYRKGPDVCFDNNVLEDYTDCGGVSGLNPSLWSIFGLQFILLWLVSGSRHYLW
Description: Competition binding of [3H]nitrendipine to membrane fragments of rat cardiac muscle.

Structures can show the parent of a compound that is named as a salt. Where two headings read alike, the source gives them in different places.

As to `CC1=C(C(N)=O)C(c2cccc([N+](=O)[O-])c2)C(C(=O)NCCCN2CCC(c3ccccc3)(c3ccccc3)CC2)=C(C)N1` (stereo not drawn) [Example 61, 5-Carboxamido-1,4-dihydro-2,6-dimethyl-4-(3-nitrophenyl)-3-{N-[3-(4,4-diphenylpiperidin-1-yl)propyl]}carboxamidopyridine], the Ki in assay [1] ([3H]prazosin, cloned human receptor in LM(tk-) cell membranes, SEM and n in lines below) was 0.851 µM; in assay [2] ([3H]rauwolscine, LM(tk-) cell line L-α2C, SEM and n in lines below, read-out: pKi alpha-2 2c (converted)) it was 0.479 µM; in assay [3] ([3H]nitrendipine, rat cardiac muscle membranes, SEM and n in lines below, read-out: pKi Ca (converted)) it was 10.2 µM.
On to `CCC1=C(C(=O)NCCCN2CCC(c3ccccc3)(c3ccccc3)CC2)C(c2ccc([N+](=O)[O-])cc2)C(C(=O)OC)=C(C)N1` (stereo not drawn) [Example 73, 2-Ethyl-1,4-dihydro-5-methoxycarbonyl-6-methyl-4-(4-nitro) phenyl-3-(N-(3-(4,4-diphenylpiperidin-1-yl)propyl))carboxamidopyridine], for which the values for the Ki in assay [1], in assay [2] (pKi alpha-2 2c) and in assay [3] (pKi Ca) were 0.204 µM, 0.275 µM and 0.759 µM, respectively.
As to `CCC1=C(C(N)=O)C(c2ccc([N+](=O)[O-])cc2)C(C(=O)NCCCN2CCC(C#N)(c3ccccc3)CC2)=C(CC)N1` (single isomer, unassigned; (+)) [(+)-102], the Ki was 2.88 µM in assay [1] ([3H]prazosin, cloned human α1A receptor, LM(tk−) cell membranes); 3.31 µM in assay [2] (pKi alpha-2 2c, [3H]rauwolscine, human α2C receptor, LM(tk−) cells); 1000 µM in assay [3] ([3H]nitrendipine, rat cardiac muscle membrane fragments, L-type calcium channel, read-out: pKi Ca (converted)).
For the compound `COC(=O)C1=C(C)NC(C)=C(C(=O)NCCCN2CCC(c3ccccc3)(c3ccccc3)CC2)C1c1ccc(Br)cc1` (stereo not drawn) [Example 15, 4-(4-Bromophenyl)-1,4-dihydro-3-methoxycarbonyl-2,6-dimethyl-5-(N-(3-(4,4-diphenylpiperidin-1-yl)propyl)carboxamido)pyridine], the Ki in assay [1] is 0.417 µM; in assay [2] (pKi alpha-2 2c), 1.12 µM; in assay [3] (pKi Ca), 7.24 µM.
As to `COC(=O)C1=C(C)NC(C)=C(C(=O)NCCCN2CCC(c3ccccc3)(c3ccccc3)CC2)C1c1ccc(C(F)(F)F)cc1` (stereo not drawn) [Example 1], the Ki in assay [1] is 2.57 µM; in assay [2] (pKi alpha-2 2c) it was 0.17 µM; in assay [3] (pKi Ca) it was 6.61 µM.
In the case of `COC(=O)C1=C(C)NC(C)=C(C(=O)NCCCN2CCC(c3ccccc3)(c3ccccc3)CC2)C1c1ccc(Cl)cc1` (stereo not drawn) [Example 10, 4-(4-Chlorophenyl)-1,4-dihydro-5-methoxycarbonyl-2,6-Dimethyl-5-(N-(3-(4,4-diphenylpiperidin-1-yl)propyl)carboxamido)pyridine], the Ki is 0.447 µM in assay [1], 1.23 µM in assay [2] (pKi alpha-2 2c) and 7.59 µM in assay [3] (pKi Ca).
On to `COC(=O)C1=C(C)NC(C)=C(C(=O)NCCCN2CCC(c3ccccc3)(c3ccccc3)CC2)C1c1ccc(C)cc1` (stereo not drawn) [Example 19, 1,4-Dihydro-3-methoxycarbonyl-1,6-dimethyl-4-(4-methylphenyl)-5-(N-(3-(4,4-diphenylpiperidin-1-yl)propyl)carboxamido)pyridine], for which the Ki in assay [1] was 0.316 µM; in assay [2] (pKi alpha-2 2c), 0.417 µM; in assay [3] (pKi Ca) it was 7.41 µM.
Regarding `CCOC(=O)C1=C(CC(=O)NCCCN2CCC(c3ccccc3)(c3ccccc3)CC2)NC(C)=C(C(=O)OC)C1c1ccc([N+](=O)[O-])cc1` (stereo not drawn) [Example 89, 3-Ethoxycarbonyl-1,4-dihydro-5-methoxycarbonyl-6-methyl-4-(4-nitro)phenyl-2-(N-(3-(4,4,-diphenylpiperidin-1-yl)propyl)carboxamido)methylpyridine, fumarate salt], the figures for the Ki in assay [1], in assay [2] (pKi alpha-2 2c) and in assay [3] (pKi Ca) were 0.347 µM, 0.501 µM and 0.813 µM, respectively.
Taken in the same sequence, the figures for `COC(=O)C1=C(C)NC(c2ccccc2)=C(C(=O)NCCCN2CCC(c3ccccc3)(c3ccccc3)CC2)C1c1ccc([N+](=O)[O-])cc1` (stereo not drawn) [Example 78, 1,4-Dihydro-5-methoxycarbonyl-6-methyl-4-(4-nitro)phenyl-2-phenyl-3-(N-(3-(4,4-diphenylpiperidin-1-yl)propyl))carboxamidopyridine hydrochloride hydrate] were 0.178 µM, 0.151 µM and 3.16 µM.
